Data taken from patent publication US20060069132A1, “Azolecarboxamide herbicides” (priority 2004, published 2006).

Experiments:
barnyardgrass = experiment: Test A pre-/postemergence herbicide test; assay type: in vivo, Echinochloa crus-galli
Summary of the method: (§1)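 Pre: seeded sandy loam, directed soil spray, compound in non-phytotoxic solvent + surfactant. Post: 1–2-leaf plants (2–10 cm), sprayed to runoff. Greenhouse ~10 d; visual injury vs untreated, 0–100 scale.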

large crabgrass = experiment: Test A pre-/postemergence herbicide test; assay type: in vivo, Digitaria sanguinalis
Summary of the method: as §1

redroot pigweed = experiment: Test A pre-/postemergence herbicide test; assay type: in vivo, Amaranthus retroflexus
Summary of the method: as §1

velvetleaf = experiment: Test B pre-/postemergence herbicide test; assay type: in vivo, Abutilon theophrasti; conditions: for Velvetleaf plant response rating: postemergence, visual rating
Summary of the method: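 Formulation: non-phytotoxic solvent mix with surfactant. Timing: preemergence on seed and postemergence on 2–18 cm plants, applied concurrently. Readout after 13–15 d greenhouse: visual 0–100 control rating against controls.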

bermudagrass = experiment: Test C pre-/postemergence herbicide test; assay type: in vivo, Cynodon dactylon
Summary of the method: (§2)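 Visual injury scores run from 0 (no effect) to 100 (complete control), assessed relative to untreated controls 12 to 14 days after treatment in the greenhouse. Chemicals were formulated in a non-phytotoxic solvent mixture with surfactant and applied to soil after planting or to emerged plants at the 1- to 4-leaf stage.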

cocklebur = experiment: Test C pre-/postemergence herbicide test; assay type: in vivo, Xanthium strumarium
Summary of the method: as §2

johnsongrass = experiment: Test C pre-/postemergence herbicide test; assay type: in vivo, Sorghum halepense
Summary of the method: as §2

eastern black nightshade = experiment: Test C pre-/postemergence herbicide test; assay type: in vivo, Solanum ptycanthum
Summary of the method: as §2

soybean = experiment: Test C pre-/postemergence herbicide test; assay type: in vivo, Glycine max
Summary of the method: as §2

[1] = Postemergence, 500 g ai/ha, 0 to 100 scale, 0 no effect, 100 complete control
[2] = Postemergence, 2000 g ai/ha, 0 to 100 scale, 0 no effect, 100 complete control
[3] = Preemergence, 500 g ai/ha, visual rating, 0 to 100 scale (0 no effect, 100 complete control)
[4] = Preemergence, 2000 g ai/ha, visual rating, 0 to 100 scale (0 no effect, 100 complete control)
[5] = 500 g ai/ha, visual rating 0-100, 0 no effect, 100 complete control, preemergence
[6] = 125 g ai/ha, scale 0 (no effect) to 100 (complete control)
[7] = 31 g ai/ha, preemergence, scale 0 to 100
[8] = 125 g ai/ha, scale 0 (no effect) to 100 (complete control), visual, 12 to 14 days, preemergence
[9] = 250 g ai/ha, scale 0 to 100 (0 no effect, 100 complete control), visual, 12 to 14 days, preemergence
[10] = Postemergence, 250 g ai/ha, scale 0 to 100, 0 no effect, 100 complete control
[11] = postemergence, 125 g ai/ha, scale 0 to 100
[12] = postemergence, 31 g ai/ha, scale 0 to 100
[13] = postemergence, 62 g ai/ha, scale 0 to 100
[14] = preemergence, 500 g ai/ha, visual injury, 0 to 100 scale (0 no effect, 100 complete control)
[15] = 250 g ai/ha, scale 0-100, preemergence
[16] = Preemergence, 500 g ai/ha, scale 0 to 100, 0 no effect, 100 complete control
[17] = 62 g ai/ha, preemergence, scale 0 to 100

With `C=Cn1nc(C(C)(C)C)cc1C(=O)Nc1cccc(C(C)=NO)c1` [Compound 114] as the molecule, how does the “Barnyardgrass plant response rating” value (barnyardgrass; [1]) read?
The value was 30.

And the “Plant response rating, Barnyardgrass” value (barnyardgrass; [2])?
Its value is 40.

What about the “Barnyardgrass plant response rating” value (barnyardgrass; [3]) of the same molecule?
Its value is 25.

What about the “Barnyardgrass plant response rating” value (barnyardgrass; [4]) of the same molecule?
Its value is 40.

What about the “Crabgrass, Large plant response rating” value (large crabgrass; [1]) of the same molecule?
The value was 40.

And the “Plant response rating, Crabgrass, Large” value (large crabgrass; [2])?
The value was 60.

And the “Crabgrass, Large plant response rating” value (large crabgrass; [3])?
The value was 40.

What about the “Crabgrass, Large plant response rating” value (large crabgrass; [4]) of the same molecule?
The value was 85.

What about the “Pigweed plant response rating” value (redroot pigweed; [1]) of the same molecule?
The value was 85.

What about the “Plant response rating, Pigweed” value (redroot pigweed; [2]) of the same molecule?
Its value is 100.

And the “Pigweed plant response rating” value (redroot pigweed; [3])?
The value was 85.

What about the “Pigweed plant response rating” value (redroot pigweed; [4]) of the same molecule?
The value was 90.

And the “Plant response rating, Velvetleaf” value (velvetleaf; [5])?
The value was 60.

What about the “Plant response rating, Velvetleaf” value (velvetleaf; Postemergence, 500 g ai/ha, visual rating after 13 to 15 days, scale 0 (no effect) to 100 (complete control)) of the same molecule?
Its value is 60.

And the “Velvetleaf plant response rating” value (velvetleaf; [6])?
Its value is 50.

And the “Plant response rating, Velvetleaf” value (velvetleaf; preemergence, 125 g ai/ha, 0 to 100 scale, 0 is no effect, 100 is complete control)?
Its value is 40.

And the “Plant response rating, Bermudagrass” value (bermudagrass; [7])?
Its value is 10.

And the “Plant response rating (0 = no effect, 100 = complete control), Bermudagrass” value (bermudagrass; 62 g ai/ha, preemergence)?
Its value is 50.

And the “Plant response rating, Bermudagrass” value (bermudagrass; [8])?
Its value is 90.

And the “Plant response rating, Bermudagrass” value (bermudagrass; [9])?
Its value is 100.

And the “Plant response rating, Bermudagrass” value (bermudagrass; [10])?
The value was 90.

And the “Plant response rating, Bermudagrass” value (bermudagrass; [11])?
The value was 90.

What about the “Plant response rating, Bermudagrass” value (bermudagrass; [12]) of the same molecule?
The value was 20.

And the “Plant response rating, Bermudagrass” value (bermudagrass; [13])?
The value was 60.

And the “Plant response rating, Cocklebur” value (cocklebur; [7])?
Its value is 0.

What about the “Plant response rating (0 = no effect, 100 = complete control), Cocklebur” value (cocklebur; 62 g ai/ha, preemergence) of the same molecule?
The value was 20.

And the “Plant response rating, Cocklebur” value (cocklebur; [8])?
The value was 20.

What about the “Plant response rating, Cocklebur” value (cocklebur; [9]) of the same molecule?
Its value is 30.

What about the “Plant response rating, Cocklebur” value (cocklebur; [10]) of the same molecule?
The value was 30.

What about the “Plant response rating, Cocklebur” value (cocklebur; [11]) of the same molecule?
Its value is 30.

And the “Plant response rating, Cocklebur” value (cocklebur; [12])?
The value was 30.

And the “Plant response rating, Cocklebur” value (cocklebur; [13])?
Its value is 30.

And the “Plant response rating, Johnsongrass” value (johnsongrass; [7])?
The value was 0.

And the “Plant response rating (0 = no effect, 100 = complete control), Johnsongrass” value (johnsongrass; 62 g ai/ha, preemergence)?
The value was 20.

What about the “Plant response rating, Johnsongrass” value (johnsongrass; [8]) of the same molecule?
The value was 30.

What about the “Plant response rating, Johnsongrass” value (johnsongrass; [10]) of the same molecule?
The value was 70.

And the “Plant response rating, Johnsongrass” value (johnsongrass; [11])?
Its value is 70.

What about the “Plant response rating, Johnsongrass” value (johnsongrass; [13]) of the same molecule?
Its value is 70.

And the “Plant response rating, Nightshade” value (eastern black nightshade; [7])?
The value was 20.

And the “Plant response rating (0 = no effect, 100 = complete control), Nightshade” value (eastern black nightshade; 62 g ai/ha, preemergence)?
Its value is 70.

And the “Plant response rating, Nightshade” value (eastern black nightshade; [8])?
The value was 90.

What about the “Plant response rating, Soybean” value (soybean; [7]) of the same molecule?
The value was 60.

And the “Plant response rating (0 = no effect, 100 = complete control), Soybean” value (soybean; 62 g ai/ha, preemergence)?
Its value is 70.

What about the “Plant response rating, Soybean” value (soybean; [10]) of the same molecule?
Its value is 70.

What about the “Plant response rating, Soybean” value (soybean; [11]) of the same molecule?
The value was 70.

What about the “Plant response rating, Soybean” value (soybean; [13]) of the same molecule?
Its value is 70.

Which results are given for `CC(=NO)c1cccc(NC(=O)c2sc(C(C)(C)C)nc2C)c1` [Compound 195]?
Barnyardgrass plant response rating (barnyardgrass; [1]): 15; Plant response rating, Barnyardgrass (barnyardgrass; [2]): 50; Barnyardgrass plant response rating (barnyardgrass; [4]): 45; Barnyardgrass plant response rating (barnyardgrass; [14]): 20; Crabgrass, Large plant response rating (large crabgrass; [1]): 10; Plant response rating, Crabgrass, Large (large crabgrass; [2]): 25; Crabgrass, Large plant response rating (large crabgrass; [4]): 95; Crabgrass, Large plant response rating (large crabgrass; [14]): 75; Pigweed plant response rating (redroot pigweed; [1]): 5; Plant response rating, Pigweed (redroot pigweed; [2]): 25; Pigweed plant response rating (redroot pigweed; [4]): 0; Pigweed plant response rating (redroot pigweed; [14]): 0; Velvetleaf plant response rating (0 to 100 scale) (velvetleaf; 125 g ai/ha, 0 = no effect, 100 = complete control, preemergence): 10; Plant response rating, Velvetleaf (velvetleaf; [5]): 20; Velvetleaf plant response rating (velvetleaf; [6]): 20; Velvetleaf plant response rating (velvetleaf; 500 g ai/ha, scale 0 (no effect) to 100 (complete control)): 40; Plant response rating, Bermudagrass (bermudagrass; 62 g ai/ha, preemergence, scale 0 to 100, 0 no effect, 100 complete control): 0; Plant response rating, Bermudagrass (bermudagrass; [8]): 0; Plant response rating, Bermudagrass (bermudagrass; [15]): 30; Bermudagrass plant response rating (bermudagrass; [16]): 65; Plant response rating, Cocklebur (cocklebur; [17]): 0; Plant response rating, Cocklebur (cocklebur; [8]): 0; Plant response rating, Cocklebur (cocklebur; [15]): 0; Cocklebur plant response rating (cocklebur; [16]): 0; Plant response rating, Johnsongrass (johnsongrass; [17]): 0; Plant response rating, Johnsongrass (johnsongrass; [8]): 0; Plant response rating, Johnsongrass (johnsongrass; [15]): 0; Johnsongrass plant response rating (johnsongrass; [16]): 0; Plant response rating, Nightshade (eastern black nightshade; [17]): 0; Plant response rating, Nightshade (eastern black nightshade; [8]): 0; Plant response rating, Nightshade (eastern black nightshade; [15]): 0; Nightshade plant response rating (eastern black nightshade; [16]): 0; Plant response rating, Soybean (soybean; [17]): 0; Plant response rating, Soybean (soybean; [8]): 0; Plant response rating, Soybean (soybean; [15]): 0; Soybean plant response rating (soybean; [16]): 0
